The values that follow come from patent US8951500B2, “13C-MR imaging or spectroscopy of cell death” (GE Healthcare AS, priority 2006, dated 2015).

The structures appear in SMILES notation.

Data set [1] relates to EL-4 murine lymphoma cells. As to the kind of experiment: 31P-NMR measurements on acid-extracts of EL-4 cells induced to undergo cell death. The format is cell-based. The source says: Loss of NAD(H) can be explained by DNA-damage induced activation of the enzyme poly-ADP-ribose polymerase (PARP), which […] various proteins and uses NAD^+ as a substrate.
Data set [2] deals with EL4 murine lymphoma cells. As to the kind of experiment: 13C-MR spectroscopy of hyperpolarised 13C-label flux between pyruvate and lactate in EL4 cell suspensions. The format is cell-based. Conditions: co-treatment of cells with the cell death inducer. As to the method:
EL4 murine lymphoma cells (10^8 cells) were treated with 15 μM etoposide (PCH Pharmachemie BV, Harleem), a compound which is known to induce cell death after 16 h exposure. A separate set of cells was treated for 16 hours with 15 μM etoposide plus 20 mM nicotinamide, a known PARP inhibitor. Cell death (apoptosis and necrosis) was confirmed by acridine orange and propidium iodide staining. The cells were washed 3 times with RPMI 1640 growth medium containing 10% FCS at 37° C. and to 2 ml of the etoposide- and etoposide/nicotinamide treated EL4 cell suspension 2 ml of the imaging medium according to Example 5 were added. The final cell suspension thus contained 30 mM hyperpolarised ^13C1-pyruvate and 37.5 mM lactate.
^13C-signal intensities from ^13C-pyruvate and ^13C-lactate in etoposide-treated EL4 cell suspensions as described in 6.1 were followed over a time period of 240 seconds from the time of addition of the imaging medium. […]
^13C-signal intensities from ^13C-pyruvate and ^13C-lactate in etoposide-treated and etoposide/nicotinamide treated EL4 cell suspensions as described in 6.1 were followed over a time period of 240 seconds from the time of addition of the imaging medium. […] The data were fit to a two-site exchange model based on the modified Bloch equations, and the rate constants for the forward and reverse exchange ^13C-fluxes were determined. […]

Data set [3] is described as follows: T1 relaxation of 13C1-pyruvate in human full blood. The format is physicochemical. The settings on record: human full blood at 37° C. The source says:
The amount of alanine, bicarbonate and lactate is dependent on the metabolic status of the tissue under investigation.
The isotopic enrichment of the hyperpolarised ^13C-pyruvate used in the method of the invention is preferably at least 75%, more preferably at least 80% and especially preferably at least 90%, an isotopic enrichment of over 90% being most preferred. Ideally, the enrichment is 100%. ^13C-pyruvate used in the method of the invention may be isotopically enriched at the C1-position (in the following denoted ^13C1-pyruvate), at the C2-position (in the following denoted ^13C2-pyruvate), at the C3-position (in the following denoted ^13C3-pyruvate), at the C1- and the C2-position (in the following denoted ^13C1,2-pyruvate), at the C1- and the C3-position (in the following denoted ^13C1,3-pyruvate), at the C2- and the C3-position (in the following denoted ^13C2,3-pyruvate) or at the C1-, C2- and C3-position (in the following denoted ^13C1,2,3-pyruvate). Isotopic enrichment at the C1-position is preferred since ^13C1-pyruvate has a higher T1 relaxation in human full blood at 37° C. (about 42 s) than ^13C-pyruvate which is isotopically enriched at other C-positions.

The subject of data set [4] is EL-4 tumour. As to the kind of experiment: Tumour cell death (histology) and tumour volume (1H spin echo images) in EL4 lymphoma-bearing mice. The format is in vivo.
For data set [5], the system named is EL-4 tumour. As to the kind of experiment: 1H NMR measurements on perchloric acid-extracts of freeze-clamped tumours. The format is in vivo, mice. Conditions: etoposide-treated tumours, extracts made immediately after MR experiments, n=8.
Description: The data were collected 20 h after treatment of the animals with etoposide. […] These extracts were made immediately following completion of the MR experiments.
The next data set concerns LDH. As to the kind of experiment: Enzyme activity measurements on protein extracts from freeze-clamped tumours. Conditions: drug-treated tumours, n=3. The format is in vivo, mice.
Data set [6] relates to EL-4 tumour.
Description: (§1) Lymphoma tumours were produced in mice by subcutaneous implantation of EL4 cells. The mice were treated with an i.p. injection of 67 mg/kg etoposide. Tumour cell death following etoposide treatment was assessed histologically. Non-etoposide treated mice were used as control.
(§2) The time-dependent changes in the tumour signals from lactate and pyruvate were fit to the exchange model to obtain the apparent rate constants, and spin lattice relaxation times (FIG. 3B). The first 10-15 s of data acquisition were lost since this was the time taken to complete the injection and insert the ^13C surface coil probe assembly, containing the animal, into the imaging magnet.
(§3) The data were collected 20 h after treatment of the animals with etoposide. The increased SDs after 40 s reflect the decrease in signal-to-noise on the lactate and pyruvate resonances resulting from the loss of polarisation. […] These extracts were made immediately following completion of the MR experiments.
(§4) In another series of experiments, animals were etoposide-treated 24 h after imaging and then 24 h after etoposide treatment a second set of images were acquired, thus each animal could serve as its own control. However, as with the other experiments, there was little variation within the groups and the group results are presented.
Data set [7] concerns EL-4 tumour. Put plainly: In vivo 13C-MR spectroscopy of pyruvate-lactate label flux in EL4 tumours after i.v. hyperpolarised 13C1-pyruvate.
Description: as §1, §2, §3, §4
Where [8] appears, read: etoposide-treated EL-4 cells compared to untreated control cells.

As to `NC(=O)c1cccc(N)c1` [3-aminobenzamide], the “effect of PARP inhibition on loss of NAD(H) and increase in FBP concentration in dying cells” value in data set [1] (10 mM 3-aminobenzamide) is “inhibited the loss of NAD(H) and the increase in FBP concentration”. Also, the “ability to transfer hyperpolarised 13C-label between pyruvate and lactate pools” value in data set [2] is “maintained their ability to transfer the hyperpolarised ^13C-label between the pyruvate and lactate pools”.

Turning to `CC(=O)C(=O)O` [^13C1-pyruvate], in data set [3], the T1 relaxation entry was “about 42 s”.

With `COc1cc([C@@H]2c3cc4c(cc3[C@@H](O[C@@H]3O[C@@H]5CO[C@@H](C)O[C@H]5[C@H](O)[C@H]3O)[C@H]3COC(=O)[C@H]23)OCO4)cc(OC)c1O` [etoposide], in data set [1] (setting [8]), the “intensity of the resonances from NAD(H)” value is reported as “a decrease in the intensity of the resonances from NAD(H)” and the “resonances from fructose-1,6-bisphosphate (FBP)” value is recorded as “an increase in the resonances from the glycolytic intermediate, fructose-1,6-bisphosphate (FBP)”. Besides, in the data set with EL-4 tumour [4] (24 h after drug treatment, 67 mg/kg i.p., n=3), the cell death turned out to be 37.0±3.8%. This molecule also returned a tumour volume in the data set with EL-4 tumour [4] (treated tumours, multi-slice 1H spin echo images, n=8) of 1.3±0.2 cm^3. For the same molecule, the “lactate/pyruvate ratio by 1H NMR” value with EL-4 tumour [5] worked out at 5.1±2.0. For the same molecule, the LDH activity in the data set with LDH is on record as 100±20 units/g wet wt. Also, the decrease in flux in the data set on EL-4 tumour [6] (following versus before treatment, n=4) was determined as 39%. In the data set on EL-4 tumour [6] (iv, 24 h), this molecule came in with a rate constant of 0.040 ± 0.012 s⁻¹. The “rate constant kP^app” value in the data set with EL-4 tumour [7] (etoposide-treated tumours, 20 h after treatment, n=8) was 0.056 ± 0.005 s⁻¹. Besides, the “calculated equilibrium lactate/pyruvate ratio (L∞/P∞)” value in the data set on EL-4 tumour [7] (etoposide-treated tumours, n=8) is 2.7±0.4. In addition, the “decrease in the rate constant kP^app” value with EL-4 tumour [7] (versus control tumours, data collected 20 h after treatment) is recorded as “approximately 25%”.

With `NC(=O)c1cccnc1` [nicotinamide], in data set [1] (20 mM nicotinamide), the “effect of PARP inhibition on loss of NAD(H) and increase in FBP concentration in dying cells” value was “inhibited the loss of NAD(H) and the increase in FBP concentration”. Moreover, the “ability to transfer hyperpolarised 13C-label between pyruvate and lactate pools” value in data set [2] is “maintained their ability to transfer the hyperpolarised ^13C-label between the pyruvate and lactate pools”.
